The text below walks through data of US5508293A, “Pyridinecarboxyimidamide compounds and the use thereof” (Kirin Beer Kabushiki Kaisha, priority 1992, dated 1996).

Series [1] concerns rat aorta. Nature of the series: Vasodilating effect in a rat aorta (relaxation of KCl-induced contraction). Details: species or system rat (male Wistar rat). The following applies: isolated rat thoracic aorta, 40 mM KCl; read-out: IC50 (concentration for inhibiting 50% of the tension induced by KCl). As to the method:
Physiological effect of the compound of the present invention was tested by the method with use of an isolated rat aorta.
Thoracic aorta was isolated from a male Wistar rat (body weight, 250-350 g) exsanguinated to death for obtaining ring preparations having a width of 3 mm. The preparations were suspended into an organ bath filled with the Krebs-Ringer solution through which a mixed gas of 95% O2 and 5% CO2 had been aerated at 37° C. A resting tension of 1 g was applied to the preparation. After the tension in the preparation was stabilized, the solution in the organ bath was exchanged with an equimolar solution containing 40 mM KC1 to increase the tension of the preparation. When the tension induced by KCl become stable, the test compound was cumulatively added to the organ bath to relax the preparation. Relaxation response was expressed as percentage inhibition of KCl-induced contraction, and the IC50 value (concentration for inhibiting 50% of the tension induced by KCl) was calculated from the average concentration-response curve by the Probit method.

Series [2] concerns spontaneously hypertensive rats (SHR), systolic blood pressure. Nature of the series: Antihypertensive effects on conscious SHR (oral), Compound Nos. 18 and 19. The format is in vivo, rat (male spontaneously hypertensive rats. The method, then: Antihypertensive effects of- 5-amino-N-cyano-N'-(2-nitroxyethyl)-3-pyridinecarboximidamide (N-cyano-N'-(2-nitroxyethyl)-5-(3-aminopyridine)carboximidamide; Compound No. 18) and N-cyano-5-ethylamino-N'-(2-nitroxyethyl)-3-pyridinecarboximidamide (N-cyano-N'-(2-nitroxyethyl)-5-[3-(N-ethylaminopyridine)]carboximidamide; Compound No. 19) were assessed by comparison with those of the methanesulfonate salt of N-cyano-N'-(2-nitroxyethyl)-3-pyridinecarboximidamide (compound described in Japanese Patent Laid-Open Publication No. 163061/1991) as a reference compound which is thought to be a well-known compound most similar to the compound of the present invention.
Systolic blood pressure (SBP) was measured with the tail cuff method.
Each of the compound Nos. 18 and 19 was dissolved in an equivalent mixture of polyethylene glycol 200 and physiological saline, and the reference compound was dissolved in physiological saline. The compounds were administered orally with the aid of an oral probe. SBP was measured before administration and 1, 2, 4, 6, 8, 12 and 24 hours after administration of the compound. The results were expressed as the percentage change in SBP observed before administration.

Series [3] relates to coronary blood flow (circumflex branch of the left coronary artery), beagles. As to the kind of experiment: Coronary dilating effect on beagles (coronary blood flow, anesthetized dog). Type of series: in vivo. The following applies: i.v., 10 Mg/Kg. The method, then:
Coronary dilating effects of 5-amino-N-cyano-N'-(2-nitroxyethyl)-3-pyridinecarboximidamide (Compound No. 18) of the present invention was assessed by comparison with those of N-cyano-N'-(2-nitroxyethyl)-3-pyridinecarboximidamide methanesulfonic acid (compound described in Japanese Patent Laid-Open Publication No. 163061/1991) which is thought to be a well-known compound most similar to the compound of the present invention.
A dog (body weight, 8.3 kg) was anesthetized with 30 mg/kg of pentobarbital sodium intravenously. Respiration was maintained with room air through a cuffed endotracheal tube. The drug was administered through the femoral vein, and the coronary blood flow was measured by a probe attached to the circumflex branch of the left coronary artery.

The nature of series [4]: Acute toxicity, oral, Compound No. 18. The following applies: rat, in vivo, male SD rats (5 weeks old). The method, then:
Acute toxicity of 5-amino-N-cyano-N'-(2-nitroxyethyl)-3-pyridinecarboximidamide (Compound No. 18) of the present invention on oral administration was examined with male SD rats (5 weeks old). As a result, LD50 was about 600 mg/kg.

pIC50: −log10 of the molar value.

A word on the LD50: it is the dose expected to kill half of the subjects tested. Low readings indicate a more toxic substance, high ones a less toxic substance.

Regarding `N#CNC(=NCCO[N+](=O)[O-])c1cncc(N)c1` [Compound No. 18, 5-amino-N-cyano-N'-(2-nitroxyethyl)-3-pyridinecarboximidamide], the pIC50 in series [1] was 4.66. In addition, the “decrease in blood pressure / antihypertensive effect” value in series [2] (3.0 mg/kg oral) is listed as “decrease in blood pressure was observed”. For the same molecule, the “duration of the antihypertensive effect” value in series [2] (3.0 mg/kg oral) is not below 12 h. Moreover, the “percent change in SBP observed before administration of the compound” value in series [2] (3.0 mg/kg oral, 1 hour after administration) is given as -56.9%; in series [2] (3.0 mg/kg oral, 2 hour after administration), -49.2%; in series [2] (3.0 mg/kg oral, 4 hour after administration) it was -42.6%; in series [2] (3.0 mg/kg oral, 6 hour after administration), -17.9%; in series [2] (3.0 mg/kg oral, 8 hour after administration), -20.5%; in series [2] (3.0 mg/kg oral, 12 hour after administration) it was -22.2%. In addition, the “percent change in SBP observed before administration of the compound” value in series [2] (3.0 mg/kg oral, 24 hour after administration) was -3.7%. For the same molecule, the “antihypertensive activity or coronary vasodilating effect determined with the passage of time” value in series [2] (summary statement) is “remarkably potent and sustainable”. Moreover, the “increase of coronary blood flow” value in series [3] was “increase of coronary blood flow was observed”. Besides, in series [3], the “time for which the increase of coronary blood flow was retained” value was not below 15 min. The “percent change of coronary blood flow as compared with the blood flow before administration” value in series [3] (1 min after dosage) was found to be 200.0%; in series [3] (3 min after dosage), 123.8%; in series [3] (5 min after dosage) it was 71.4%; in series [3] (10 min after dosage), 19.0%; in series [3] (15 min after dosage) it was 19.0%; in series [3] (20 min after dosage), 0.0%. The same molecule displayed an LD50 in series [4] of approximately 600 mg/kg.
